# Tests used:
# [1] = system: IL-1 production in LPS-stimulated PBMCs; experiment: Inhibition of IL-1 production in LPS-stimulated PBMCs ("cell"); assay type: cell-based, human; details: Homo sapiens, PBMC
# Description: (§1) Inhibitors were serially diluted in DMSO from a 20 mM stock. At least 6 serial dilutions were prepared. Then 4× inhibitor stocks were prepared by adding 4 μl of an inhibitor dilution to 1 ml of RPMI1640 medium/10% fetal bovine serum. The 4× inhibitor stocks contained inhibitor at concentrations of 80 μM, 32 μM, 12.8 μM, 5.12 μM, 2.048 μM, 0.819 μM, 0.328 μM, 0.131 μM, 0.052 μM, 0.021 μM etc. The 4× inhibitor stocks were pre-warmed at 37° C. until use.
# (§2) Fresh human blood buffy cells were separated from other cells in a Vacutainer CPT from Becton & Dickinson (containing 4 ml blood and enough DPBS without Mg^2+/Ca^2+ to fill the tube) by centrifugation at 1500×g for 15 min. Peripheral blood mononuclear cells (PBMCs), located on top of the gradient in the Vacutainer, were removed and washed twice with RPMI1640 medium/10% fetal bovine serum. PBMCs were collected by centrifugation at 500×g for 10 min. The total cell number was determined using a Neubauer Cell Chamber and the cells were adjusted to a concentration of 4.8×10^6 cells/ml in cell culture medium (RPMI1640 supplemented with 10% fetal bovine serum).
# (§3) We placed 100 μl of cell suspension or whole blood in each well of a 96-well cell culture plate. Then we added 50 μl of the 4× inhibitor stock to the cells. Finally, we added 50 μl of a lipopolysaccharide (LPS) working stock solution (16 ng/ml in cell culture medium) to give a final concentration of 4 ng/ml LPS in the assay. The total assay volume of the vehicle control was also adjusted to 200 μl by adding 50 μl cell culture medium. The PBMC cells or whole blood were then incubated overnight (for 12–15 hours) at 37° C./5% CO2 in a humidified atmosphere.
# (§4) The next day the cells were mixed on a shaker for 3–5 minutes before centrifugation at 500×g for 5 minutes. Cell culture supernatants were harvested and analyzed by ELISA for levels of IL-1b (R & D Systems, Quantikine kits, #DBL50), TNF-α (BioSource, #KHC3012), IL-6 (Endogen, #EH2-IL6) and IL-8 (Endogen, #EH2-IL8) according to the instructions of the manufacturer. The ELISA data were used to generate dose-response curves from which IC50 values were derived.
# [2] = system: TNF production in LPS-stimulated PBMCs; experiment: Inhibition of TNF production in LPS-stimulated PBMCs ("cell"); assay type: cell-based, human; details: Homo sapiens, PBMC
# Description: as §1, §2, §3, §4
# [3] = molecular target: activated p38 (Homo sapiens, UniProt Q16539); experiment: Inhibition of phosphorylation of EGF receptor peptide ("kinase"); assay type: biochemical; details: inhibition of phosphorylation of EGF receptor peptide by activated p38
# Sequence of activated p38 (Q16539 whole entry): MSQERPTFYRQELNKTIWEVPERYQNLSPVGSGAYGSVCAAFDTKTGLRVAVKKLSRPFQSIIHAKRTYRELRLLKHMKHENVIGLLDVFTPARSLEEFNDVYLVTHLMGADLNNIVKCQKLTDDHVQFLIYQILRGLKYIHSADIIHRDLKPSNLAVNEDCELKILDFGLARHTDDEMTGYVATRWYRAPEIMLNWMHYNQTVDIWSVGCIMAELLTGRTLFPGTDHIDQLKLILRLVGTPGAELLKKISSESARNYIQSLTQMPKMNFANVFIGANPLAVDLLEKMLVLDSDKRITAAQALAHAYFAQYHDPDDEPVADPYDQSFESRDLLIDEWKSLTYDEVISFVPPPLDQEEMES
# Description: This assay was carried out in the presence of 10 mM MgCl2, 25 mM β-glycerophosphate, 10% glycerol and 100 mM HEPES buffer at pH 7.6. […] The stock solution was aliquotted into vials. A fixed volume of DMSO or inhibitor in DMSO (final concentration of DMSO in reaction was 5%) was introduced to each vial, mixed and incubated for 15 minutes at room temperature. EGF receptor peptide, […], a phosphoryl acceptor in p38-catalyzed kinase reaction (1), was added to each vial to a final concentration of 200 μM. The kinase reaction was initiated with ATP (100 μM) and the vials were incubated at 30° C. After 30 minutes, the reactions were quenched with equal volume of 10% trifluoroacetic acid (TFA).
# The phosphorylated peptide was quantified by HPLC analysis. Separation of phosphorylated peptide from the unphosphorylated peptide was achieved on a reverse phase column (Deltapak, 5 μm, C18 100D, part no. 011795) with a binary gradient of water and acteonitrile, each containing 0.1% TFA.
Structure (SMILES),IC50 [1],IC50 [2],IC50 [3]
Nc1ccc(-c2c(=O)ncn3nc(Sc4ccc(F)cc4)ccc23)c(Cl)c1 [Compound 46],≥ 500 nM,≥ 500 nM,100 to 1000 nM
COc1ccc(-c2c(=O)ncn3nc(Sc4ccc(F)cc4)ccc23)c(Cl)c1 [Compound 47],100 to 500 nM,≥ 500 nM,100 to 1000 nM
CN(C)/C=N\c1ccc(-c2c(=O)ncn3nc(Sc4ccc(F)cc4Cl)ccc23)c(Cl)c1 [Compound 48],100 to 500 nM,≥ 500 nM,100 to 1000 nM
NC(=O)c1ccccc1SC1=NN2CNC(=O)C(c3c(Cl)cccc3Cl)=C2C=C1 [Compound 105],≥ 500 nM,≥ 500 nM,100 to 1000 nM
O=C1NCN2N=C(Sc3ccccn3)C=CC2=C1c1c(Cl)cccc1Cl [Compound 107],≥ 500 nM,≥ 500 nM,100 to 1000 nM
O=C1NCN2C=C(Sc3ccccc3)C=CC2=C1c1c(Cl)cccc1Cl [Compound 110],≥ 500 nM,≥ 500 nM,100 to 1000 nM
O=C1NCN2C=C(Sc3ccc(F)cc3)C=CC2=C1c1c(Cl)cccc1Cl [Compound 111],≥ 500 nM,≥ 500 nM,100 to 1000 nM
N=C(N)Nc1cc(F)c(F)cc1SC1=NN2CNC(=O)C(c3c(Cl)cccc3Cl)=C2C=C1 [Compound 124],≥ 500 nM,≥ 500 nM,≥ 1000 nM
Nc1cc(C(F)(F)F)ccc1SC1=NN2CNC(=O)C(c3c(Cl)cccc3Cl)=C2C=C1 [Compound 126],100 to 500 nM,≥ 500 nM,≥ 1000 nM
NC(=O)Nc1cc(F)ccc1SC1=NN2CNC(=O)C(c3c(Cl)cccc3Cl)=C2C=C1 [Compound 128],≥ 500 nM,≥ 500 nM,≥ 1000 nM
O=C1NCN2N=C(Sc3ccccc3)C=CC2=C1c1c(F)cccc1F [Compound 130],100 to 500 nM,≥ 500 nM,≤ 100 nM
Cc1cc(F)ccc1SC1=NN2CNC(=O)C(c3c(Cl)cccc3Cl)=C2C=C1 [Compound 131],≤ 100 nM,≤ 100 nM,≤ 100 nM
Nc1ccc(F)c(C2=C3C=CC(Sc4ccc(F)cc4)=NN3CNC2=O)c1Cl [Compound 132],≤ 100 nM,100 to 500 nM,≤ 100 nM
Cc1cc(SC2=NN3CNC(=O)C(c4c(Cl)cccc4Cl)=C3C=C2)c(Cl)cc1F [Compound 133],≤ 100 nM,≤ 100 nM,≤ 100 nM
COc1cc(Cl)c(C2=C3C=CC(Sc4ccc(F)cc4)=NN3CNC2=O)cc1OC [Compound 134],100 to 500 nM,≥ 500 nM,≤ 100 nM
Cc1cc(Cl)ccc1Sc1ccc(C(C(N)=O)c2c(Cl)cccc2Cl)nn1 (stereo not drawn) [Compound 206],≥ 500 nM,≥ 500 nM,100 to 1000 nM
NC(=O)C(c1ccc(C(O)c2ccccc2)cn1)c1c(Cl)cccc1Cl (stereo not drawn) [Compound 208],100 to 500 nM,,
NC(=O)C(c1ccc(C(=O)c2ccccc2)cn1)c1c(Cl)cccc1Cl (stereo not drawn) [Compound 209],≥ 500 nM,,
COc1ccc(-c2cccc(C(C(N)=O)c3c(Cl)cccc3Cl)n2)cc1 (stereo not drawn) [Compound 352],≥ 500 nM,,≥ 1000 nM
Cc1cc(-c2cccc(C(C(N)=O)c3c(Cl)cccc3Cl)n2)ccc1F (stereo not drawn) [Compound 395],,,≤ 100 nM
NC(=O)C(c1cccc(-c2ccc(F)cc2F)n1)c1c(Cl)cccc1Cl (stereo not drawn) [Compound 396],,,≤ 100 nM
NC(=O)C(c1cccc(-c2ccccc2)n1)c1cc2c(cc1Cl)OCO2 (stereo not drawn) [Compound 397],,,≥ 1000 nM
NC(=O)C(c1cccc(-c2c(F)cc(F)cc2F)n1)c1c(Cl)cccc1Cl (stereo not drawn) [Compound 399],,,≤ 100 nM
Cc1c(Cl)cccc1-c1cccc(C(C(N)=O)c2c(Cl)cccc2Cl)n1 (stereo not drawn) [Compound 1301],,,≤ 100 nM
